Article PMC9266351, “Degradation and Detoxification of Chlorophenols with Different Structure by LAC-4 Laccase Purified from White-Rot Fungus Ganoderma lucidum” (International Journal of Environmental Research and Public …, 2022)

What was measured:
Type in all cases: biochemical, Ganoderma lucidum
LAC-4 laccase [1] = test system: T1, LAC-4 laccase; assay: degradation over […] min; Lineweaver-Burk plot; details: 50 mM acetate pH 5.0, 30 °C; 0.1-8 mM substrate, 1 U/mL enzyme
T1 construct: native secreted enzyme purified from culture filtrate (GYP medium, CuSO4-induced; ammonium sulfate, anion exchange, hydrophobic chromatography); about 56 kDa by SDS-PAGE

LAC-4 laccase [2] = test system: T1, LAC-4 laccase; assay: degradation over […] min; Lineweaver-Burk plot; details: 50 mM acetate pH 5.0, 30 °C; 0.1-8 mM substrate, 1 U/mL enzyme; remark: listed apart in the source
LAC-4 laccase [3] = test system: T1, LAC-4 laccase; assay: spectrophotometric oxidation at […] nm; non-linear Michaelis-Menten fit; details: 50 mM acetate pH 5.0, 30 °C; 0.01-0.06 mM substrate (all below Km), 0.01 U/mL enzyme
LAC-4 laccase [4] = test system: T1, LAC-4 laccase; assay: as above; details: 50 mM acetate pH 5.0, 30 °C; 0.01-0.1 mM substrate, 0.01 U/mL enzyme
LAC-4 laccase [5] = test system: T1, LAC-4 laccase; assay: as above; details: 50 mM acetate pH 5.0, 30 °C; 0.1-1.0 mM substrate, 0.01 U/mL enzyme

Oc1c(Cl)ccc(Cl)c1Cl [2,3,6-TCP]
Km (LAC-4 laccase [1]): 4.88 mM

Oc1c(Cl)cccc1Cl [2,6-DCP]
Km (LAC-4 laccase [2]): 3.64 mM

COc1cccc(OC)c1O [2,6-DMP]
Km (LAC-4 laccase [3]): 803 µM

CCn1c(=NN=c2sc3cc(S(=O)(=O)O)ccc3n2CC)sc2cc(S(=O)(=O)O)ccc21 [ABTS]
Km (LAC-4 laccase [4]): 75 µM

COc1ccccc1O [guaiacol]
Km (LAC-4 laccase [5]): 97 µM
